In US8669264B2, “Rutaecarpine derivatives for activating CYP1A2 in a subject” (Linnet Biopharmaceuticals, Inc., priority 2011, dated 2014):

Test system: CYP1A2
Test: MEROD assay in live Hepa1c1c7 cells (CYP1A2 induction)
Type: cell-based, mouse
Details: Hepa1c1c7 cells incubated with 10 μM compound
Description: FIG. 1 illustrates how caffeine is primarily metabolized to paraxanthine via CYP1A2 enzyme in a human, according to some embodiments. The MEROD (methoxyresorufin-O-demethylase) assay measures the activity of the enzyme (CYP1A2) that converts methoxyresorufin (probe substrate) to resorufin (demethylation) in the presence of NADPH. The resulting resorufin concentration can be measured using a fluorescence reader by setting the excitation and emission wavelengths at 544 and 590 nm, respectively.
For MEROD assay in live cells, Hepa1c1c7 cells were cultured in either 6-well or 24-well-plates. For the 24-well plate experiment, after confluent cells were incubated for approximately 20 hours with either resorufin, nitro-resorufin, chloro-resorufin, 3-MC or DMSO (in triplicates), culture media was removed and 180 μL fresh culture media containing […] methoxyresorufin was added per well. After 1 hour incubation at 37° C., 100 μL aliquot was taken from each well and the formation of resorufin was measured by fluorescence. […] After 5 hours incubation at 37° C., 100 μL aliquot was taken from each well, centrifuged at 12,000 g at RT for ˜5 min and the supernatants were placed into wells of a 96-well fluorescence plate and the formation of resorufin was measured by fluorescence.

O=c1c2ccc(Cl)cc2nc2n1CCc1c-2[nH]c2ccccc12 [chloro-rutaecarpine]
formation of resorufin from live cells (MEROD): no marked difference
